Assay results published in ChEMBL document CHEMBL1154622, “Structure-guided design of potent and selective pyrimidylpyrrole inhibitors of extracellular signal-regulated kinase (ERK) using conformational control” (J Med Chem, 2009).

Experiments:
[1] = biological target: Mitogen-activated protein kinase 8 (Homo sapiens) (UniProt P45983); assay: Inhibition of JNK1 at 2 uM
[2] = biological target: Mitogen-activated protein kinase kinase kinase kinase 4 (Homo sapiens) (UniProt O95819); assay: Inhibition of MAP4K4 at 1 uM
[3] = biological target: Serine/threonine-protein kinase pim-2 (Homo sapiens) (UniProt Q9P1W9); assay: Inhibition of PIM2 at 1 uM
[4] = Oral bioavailability in mouse at 33 mg/kg; assay type: ADME, organism-based; conditions: in vivo

Mitogen-activated protein kinase kinase kinase kinase 4 (Homo sapiens), sequence (O95819 2-1239 limits assumed): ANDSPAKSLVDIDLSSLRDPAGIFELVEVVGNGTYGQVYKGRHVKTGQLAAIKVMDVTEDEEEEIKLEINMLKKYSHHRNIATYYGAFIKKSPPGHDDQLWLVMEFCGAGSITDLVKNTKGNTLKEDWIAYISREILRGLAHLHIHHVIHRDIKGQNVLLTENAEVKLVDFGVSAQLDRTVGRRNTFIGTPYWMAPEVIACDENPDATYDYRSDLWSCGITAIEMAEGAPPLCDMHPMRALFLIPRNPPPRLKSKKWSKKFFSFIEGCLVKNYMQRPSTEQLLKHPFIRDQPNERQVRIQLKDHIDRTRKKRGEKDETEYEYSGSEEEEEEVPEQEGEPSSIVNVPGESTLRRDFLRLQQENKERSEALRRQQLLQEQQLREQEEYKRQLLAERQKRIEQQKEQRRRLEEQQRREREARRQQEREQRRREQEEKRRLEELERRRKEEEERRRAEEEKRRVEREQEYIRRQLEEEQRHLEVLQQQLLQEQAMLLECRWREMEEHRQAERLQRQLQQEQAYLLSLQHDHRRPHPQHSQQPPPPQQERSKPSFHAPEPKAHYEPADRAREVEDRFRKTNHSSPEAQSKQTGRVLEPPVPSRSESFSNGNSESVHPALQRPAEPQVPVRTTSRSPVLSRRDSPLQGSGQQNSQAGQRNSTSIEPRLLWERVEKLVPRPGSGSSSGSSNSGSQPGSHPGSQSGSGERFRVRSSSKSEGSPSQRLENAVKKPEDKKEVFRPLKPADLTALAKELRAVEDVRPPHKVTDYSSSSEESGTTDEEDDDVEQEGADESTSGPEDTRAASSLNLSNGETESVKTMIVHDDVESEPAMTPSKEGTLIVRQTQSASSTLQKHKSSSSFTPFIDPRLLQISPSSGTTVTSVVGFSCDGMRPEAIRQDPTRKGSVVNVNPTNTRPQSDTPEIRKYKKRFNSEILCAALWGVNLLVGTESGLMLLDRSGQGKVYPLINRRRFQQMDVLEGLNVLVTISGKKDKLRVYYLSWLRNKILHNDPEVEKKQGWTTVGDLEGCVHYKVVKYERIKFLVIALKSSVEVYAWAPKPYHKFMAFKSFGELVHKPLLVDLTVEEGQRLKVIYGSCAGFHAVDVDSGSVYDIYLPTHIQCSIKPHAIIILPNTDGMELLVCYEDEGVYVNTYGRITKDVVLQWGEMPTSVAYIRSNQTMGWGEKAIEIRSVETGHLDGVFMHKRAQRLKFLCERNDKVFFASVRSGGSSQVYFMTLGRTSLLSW
Serine/threonine-protein kinase pim-2 (Homo sapiens), sequence (Q9P1W9 whole entry, looked up): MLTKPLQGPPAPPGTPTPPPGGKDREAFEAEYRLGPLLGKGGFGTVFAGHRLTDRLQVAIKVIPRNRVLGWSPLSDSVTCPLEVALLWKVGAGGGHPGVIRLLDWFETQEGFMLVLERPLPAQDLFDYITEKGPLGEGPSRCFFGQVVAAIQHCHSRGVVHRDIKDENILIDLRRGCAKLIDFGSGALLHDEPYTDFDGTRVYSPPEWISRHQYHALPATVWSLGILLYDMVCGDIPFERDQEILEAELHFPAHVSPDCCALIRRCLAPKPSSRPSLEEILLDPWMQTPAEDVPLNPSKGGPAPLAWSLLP
Mitogen-activated protein kinase 8 (Homo sapiens), sequence (P45983 whole entry): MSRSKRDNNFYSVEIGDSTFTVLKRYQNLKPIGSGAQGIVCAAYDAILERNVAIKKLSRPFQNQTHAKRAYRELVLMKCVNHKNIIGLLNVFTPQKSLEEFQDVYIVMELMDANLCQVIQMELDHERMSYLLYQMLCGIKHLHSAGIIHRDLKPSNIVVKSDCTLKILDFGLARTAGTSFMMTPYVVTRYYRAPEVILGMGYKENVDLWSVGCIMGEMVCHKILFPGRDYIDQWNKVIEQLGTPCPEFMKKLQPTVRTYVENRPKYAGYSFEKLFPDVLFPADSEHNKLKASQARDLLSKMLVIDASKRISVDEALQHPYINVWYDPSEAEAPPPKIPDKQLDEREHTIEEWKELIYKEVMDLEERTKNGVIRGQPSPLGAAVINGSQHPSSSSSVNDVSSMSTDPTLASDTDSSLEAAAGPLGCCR

SMILES: Cc1cnc(Nc2ccc(F)cc2Cl)nc1-c1c[nH]c(C(=O)N[C@H](CO)c2cccc(Cl)c2)c1
- inhibition [1]: 34%
- inhibition [2]: 18%
- inhibition [3]: 3%
- bioavailability [4]: 67%
